Entries after “also recorded” stand apart in the source; their conditions may differ. *1 amine or outer side, *2 acyl side, *3 side chain or, on linkers, in order; H or OH if unused. Where a SMILES comes first, the peptide text is derived from it. [ ]: non-standard residue; d: D form. The star is where a group is joined. Dolaproine = CO[C@@H]([C@@H]1CCCN1)[C@@H](C)C(=O)O; Hexanoyl(6-maleimido) = O=C1C=CC(=O)N1CCCCCC(=O)*; Dil = CC[C@H](C)[C@H](NC)[C@@H](CC(=O)O)OC; PABC = O=C(OCc1ccc(N[*:1])cc1)[*:2]; X1 = C[C@@H](N*)[C@@H](O)c1ccccc1; Cit = NC(=O)NCCC[C@H](N)C(=O)O; NMeV = CN[C@H](C(=O)O)C(C)C
How the values were obtained:
wild-type A20 cells [1] = assay: T cell transfer from immunized mice into A20 tumor-bearing NSG mice; format: in vivo
Protocol: Immune-competent Balb/c mice were immunized with BV-killed or flash-frozen-killed A20^hcD30 cells as previously described. 16 weeks after initial immunization, spleens were harvested from immunized mice or naïve Balb/c mice, and manually homogenized. Splenic homogenates were combined from 4 mice per immunization, and CD3^+ T cells were isolated using EasySep Mouse T cell Enrichment Kit (Stem Cell Technologies). 1×10^6 CD3+ T cells were administered intravenously into A20 tumor-bearing mice.
4×10^6 wild-type A20 cells were subcutaneously implanted into immunodeficient NOD/SCID/γ-chain-deficient (NSG) mice. 5 days after implant, mice harboring tumors˜100 mm^3 were randomized, and received 1×10^6T cells from mice as described above.

TARC, IP10, IL-18, IFNγ = assay: phase 1/2 study NCT02572167, serum cytokine and chemokine levels; format: in vivo, human
Protocol: FIGS. 6A-6D show priming of the immune system of patients treated with brentuximab vedotin (BV) in combination with nivolumab.
(§1) A phase 1/2 study (NCT02572167) is ongoing to assess the safety profile and antitumor activity of BV administered in combination with nivolumab in patients with relapsed or refractory Hodgkin lymphoma (HL). Patients will be treated for up to four 21-day cycles with BV 1.8 mg/kg and nivolumab 3 mg/kg. Patients will be administered 1.8 mg/kg BV on Cycle 1 Day 1, and 3 mg/kg nivolumab on Cycle 1 Day 8. For cycles 2 through 4, BV and nivolumab will be administered on Day 1 of each cycle at the same doses, e.g., 1.8 mg/kg BV and 3 mg/kg nivolumab. Both BV and nivolumab will be administered by IV injection. After completion of the Cycle 4 response assessment (EOT), patients will be eligible to undergo ASCT. Responses were assessed using the 2014 Lugano classification (Cheson et al., J Clin Oncol 2014; 32(27):3059-68).

wild-type A20 cells [2] = assay: immunization with drug-killed A20^hcD30 cells plus anti-PD-1, A20 challenge; format: in vivo, Balb/c mice; settings: anti-PD-1 1 mg/kg i.v. days 6, 9, 14, 17
Protocol: Balb/c mice were immunized with BV- or MMAE-killed A20^hcD30 cells as described above. 14 days after initial immunization, mice were subcutaneously implanted with 5×10^6 wild-type A20 cells. Anti-murine PD-1 (1 mg/kg, BioLegend) was administered intravenously on days 6, 9, 14, and 17 after A20 tumor challenge.

[3] = system: CD30+ relapsed, refractory peripheral T-cell lymphoma (PTCL); settings: patients treated with BV; cited from earlier work
[4] = system: CD30+ relapsed, refractory DLBCL; settings: patients treated with BV; cited from earlier work
[5] = system: CD30+ cutaneous T-cell lymphoma (CTCL); settings: patients treated with BV; cited from earlier work
[6] = system: peripheral blood T cell subsets; assay: phase 1/2 study NCT02572167, peripheral blood immunophenotyping; format: in vivo, human
Text: FIGS. 7A-7C show peripheral blood immunophenotyping. T helper subsets, such as Tregs, (FIG. 7A), activated CD4^+ T cells (FIG. 7B), and proliferating CD4^+ T cells (FIG. 7C), which were reduced after single agent BV dosing, expanded after BV and nivolumab combination dosing.
as §1

LCL tumors [7] = assay: T cell and NK cell infiltration into autologous LCL tumors, humanized mouse model; format: in vivo, NSG mice; settings: single suboptimal dose 1 mg/kg i.p., autologous PBMC transferred
Protocol: Epstein Barr virus (EBV) transformed lymphoblastoid cell Lines (LCL) were implanted subcutaneously into NSG mice. When LCL tumor volumes reached 250 mm^3, mice received a single suboptimal dose of BV or control hIgG-MMAE (1 mg/kg, i.p). Three days following dosing, 2.0×10^6 autologous peripheral blood mononuclear cells (PBMC) were adoptively transferred to mice via tail vein injection. Eleven days following transfer of PBMC, tumors were harvested, weighed, and manually dissociated through a 70 μm cell strainer. Following centrifugation, individual tumor cell pellets were resuspended in 4 ml of RPMI+10% FCS, and 200 ul of the cell suspension was used for staining and analysis by flow cytometry (FACS). Tumor cell suspensions were stained with Zombie Aqua Viability Dye (Biolegend) followed by staining with fluorescently labeled antibodies targeting human CD19, CD2, CD8, CD4, CD56, human CD45, PD-L1, PD-1, and murine CD45.1 (1:50 dilution, Biolegend) in staining buffer (SB: PBS, 2% FCS, 1% NRS, 0.05% NaN3) at 4° C. for 30 minutes. Cells were washed and resuspended in 120 μl of SB for plate-based FACS using an Attune NXT flow cytometer. All events were collected from 80 μl of sample, and FACS-measured cell concentrations were used to calculate numbers of infiltrating immune cells. CD8^+ T cells were identified as viability dye^neg, hCD45^+, mCD45.1^−, CD2^+, CD8^+ cells. […]

wild-type A20 cells [8] = assay: immunization with drug-killed A20^hcD30 cells, then wild-type A20 challenge; format: in vivo, Balb/c mice; settings: mice immunized with drug-killed A20^hcD30 cells; for tumor growth: 5×10^6 wild-type A20 cells s.c.
Protocol: A20 mouse lymphoma cells were transfected with plasmid constructs encoding human TNFRSF8 (NM_001243.4) and sgRNA/Cas9 for control under the endogenous promoter of murine Tnfrsf8. Fluorescence activated cell sorting (FACS) yielded a clonal population of A20 cells that stably expressed human CD30, to be referenced as A20^hcD30, in order to be susceptible to brentuximab vedotin treatment.
A20^hcD30 cells were cultured in RPMI 1640 with 10% FBS, 10 mM HEPES, 1 mM sodium pyruvate, penicillin (100 U/ml), and streptomycin (100 μg/ml). A20^hcD30 cells were treated with 1 μg/ml BV or 100 nM mc-vc-MMAE for 4 days. In order to prepare dying cells for immunization, treated A20^hcD30 cells were overlaid atop Histopaque, and centrifuged at 2000 g for 30 minutes. Dead and dying cells were pelleted underneath the Histopaque layer, and viability was assessed to be <20% live cells by trypan blue exclusion. Flash-frozen A20^hcD30 cells were prepared by submerging cells in liquid nitrogen for 10 seconds, followed by immersion in 37° C. water until completely thawed. The liquid nitrogen freeze-thaw process was repeated 5 times. Dead and dying A20^hcD30 cells were resuspended in PBS and 2×10^6 cells were injected into the peritoneum of immune-competent Balb/c mice. 7 days later, mice received a second immunization with dead and dying cells prepared in the same manner.
14 days after initial immunization, mice were subcutaneously implanted with 5×10^6 wild-type A20 cells and monitored for tumor growth. […] As these effects occurred in the absence of any administered therapeutic, the presence of cells killed by BV or MMAE were sufficient to generate long-lasting protective immune memory against subsequent A20 lymphoma challenge.

LCL tumors [9] = assay: immune-mediated tumor clearance in the humanized LCL tumor model; format: in vivo, NSG mice
Protocol: Epstein Barr virus (EBV) transformed lymphoblastoid cell lines (LCL) were implanted subcutaneously into NSG mice. When LCL tumors averaged 250 mm^3, mice received a single suboptimal dose of BV or control hIgG-MMAE (1 mg/kg, i.p). Three days following dosing, 2×10^6 autologous PBMC were adoptively transferred to mice via tail vein injection. Mice received two doses of nivolumab (10 mg/kg, i.p.) 2 and 7 days after adoptive transfer of PBMC. […] The significance of these differences is reflected in a comparison of mean tumor volumes at day 50, during active tumor clearance (FIG. 15B). Taken together, results obtained from this humanized model support the conclusion that in addition to direct tumor cell killing, BV drives an inflammatory response that enhances immune-mediated cellular cytotoxicity and pairs well with nivolumab.

[10] = system: xenograft models of Hodgkin disease; settings: SCID mouse xenograft; cited from earlier work
CD30^+ cell lines = settings: in vitro; cited from earlier work
PD-1 = molecular target: T1, PD-1 (Homo sapiens, UniProt Q15116); settings: 15 subjects, 0.3 mg/kg to 10 mg/kg nivolumab, across all doses; cited from earlier work
T1 construct: Receptor-occupancy data from 15 subjects who received 0.3 mg/kg to 10 mg/kg dosing with nivolumab indicate that PD-1 occupancy appears to be dose-independent; host or cells: endogenous receptor in dosed subjects

[11] = monotherapy, every two weeks; MTD not reached; cited from earlier work

T1 sequence (Q15116 25-288): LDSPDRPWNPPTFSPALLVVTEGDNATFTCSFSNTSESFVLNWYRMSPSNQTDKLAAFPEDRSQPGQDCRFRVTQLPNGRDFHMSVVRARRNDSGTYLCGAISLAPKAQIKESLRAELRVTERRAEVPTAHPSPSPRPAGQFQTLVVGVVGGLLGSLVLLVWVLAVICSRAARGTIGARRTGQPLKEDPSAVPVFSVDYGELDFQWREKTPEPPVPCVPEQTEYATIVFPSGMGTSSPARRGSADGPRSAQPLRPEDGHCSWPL

BV: CD30-directed antibody-drug conjugate: chimeric anti-CD30 antibody cAC10, MMAE and a protease-cleavable linker
tumor growth (wild-type A20 cells [1]; NSG mice given 1×10^6 T cells from mice immunized with BV-killed cells): slowed tumor growth | CD8 T cells within the tumor (wild-type A20 cells [1]; NSG mice given T cells from mice immunized with BV-killed cells): increased CD8 T cells within the tumor | pro-inflammatory cytokine and chemokine levels (TARC, IP10, IL-18, IFNγ; after BV dosing, following concurrent BV and nivolumab): increase | Pro-inflammatory cytokine IL-18 levels (TARC, IP10, IL-18, IFNγ; after C1D1 BV dosing, with BV and nivolumab dosing): significantly higher | T-cell chemokine IP10 levels (TARC, IP10, IL-18, IFNγ; after C1D1 BV, following C1D8 nivolumab dosing): significantly higher | Serum TARC levels (TARC, IP10, IL-18, IFNγ; compared to baseline): significantly lower | protective anti-tumor immunity (wild-type A20 cells [2]): conferred protective anti-tumor immunity | ORR [3]: 41% | ORR [4]: 44% | ORR [5]: 73% | percentage of CD4+ T regulatory (Treg) cells ([6]; Cycle 1 Day 8, preliminary): decrease | proliferating CD8+ T cells ([6]; Cycle 1 Day 8, preliminary): no effect | T helper subsets, such as Tregs ([6]; peripheral blood): initial reduction; also recorded: reduced | activated CD4+ T cells ([6]; peripheral blood): initial reduction; also recorded: reduced | proliferating CD4+ T cells ([6]; peripheral blood): initial reduction; also recorded: reduced | intratumoral accumulation of human cytotoxic cells (LCL tumors [7]): enhanced intratumoral accumulation of human cytotoxic cells | survival of tumor-bearing mice (wild-type A20 cells [8]): increased survival | tumor growth (wild-type A20 cells [8]): delayed tumor growth | tumor rejection (LCL tumors [9]; suboptimal dose 1 mg/kg i.p. without the addition of PBMC): did not reject tumors | immune-mediated tumor clearance (LCL tumors [9]; with autologous PBMC, BV 1 mg/kg i.p., nivolumab 10 mg/kg i.p.): enhanced immune-mediated tumor clearance

CC[C@H](C)[C@@H]([C@@H](CC(=O)N1CCC[C@H]1[C@H](OC)[C@@H](C)C(=O)N[C@H](C)[C@@H](O)c1ccccc1)OC)N(C)C(=O)[C@@H](NC(=O)[C@H](C(C)C)N(C)C(=O)OCc1ccc(NC(=O)[C@H](CCCNC(N)=O)NC(=O)[C@@H](NC(=O)CCCCCN2C(=O)C=CC2=O)C(C)C)cc1)C(C)C [mc-vc-MMAE] ({Hexanoyl(6-maleimido)}-V[Cit][PABC][NMeV]V[Dil][Dolaproine]-X1)
protective anti-tumor immunity (wild-type A20 cells [2]): conferred protective anti-tumor immunity | survival of tumor-bearing mice (wild-type A20 cells [8]): increased survival | tumor growth (wild-type A20 cells [8]): delayed tumor growth

cAC10: chimeric IgG1 monoclonal antibody that specifically binds CD30
antitumor activity [10]: pronounced antitumor activity | growth of CD30+ cell lines (CD30^+ cell lines): induces growth arrest

nivolumab
mean occupancy rate (PD-1) (PD-1): 85% | mean plateau occupancy (PD-1) (PD-1): 72% | T cells ([6]; Cycle 1, one week after nivolumab dosing (2 weeks after BV dosing)): robust expansion | percentage of CD4+ Th1 cells compared to baseline ([6]; most patients (5 of 6, 83%)): no significant change | maximum tolerated dose (MTD) [11]: > 10 mg/kg
